Among the data in patent US9187472B2 (AbbVie Inc., priority 2012, dated 2015) are IC50 values, retold here.

pIC50: −log10 of the molar value. Some results are limits rather than exact numbers.

Test [1] deals with PC3 cells. The test can be described thus: NAMPT Cell Proliferation Assay. It counts as cell-based. The note with it: Homo sapiens, PC-3, 120 h, 5 days incubation, cell viability by Cell Titer Glo. In short, it runs like this: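 IC50 values derive from sigmoidal dose-response fits of percent inhibition of PC3 viability, measured by luminescence after 5 days of compound treatment. Cells (500/well, RPMI containing 10% heat-inactivated FBS) are allowed to attach overnight, and compounds are tested at 10-fold dilutions between 10 μM and 1×10^−5 μM.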

Test [2] deals with NAMPT (Homo sapiens, UniProt P43490). The test can be described thus: TR-FRET Binding Assay of NAMPT with PRPP. The note with it: with 200 μM PRPP and 2.5 mM ATP; 2 nM NAMPT, 2 nM probe, 16 hours equilibration. In short, it runs like this:
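Compounds were mixed with 2 nM His-tagged NAMPT, 2 nM probe, 1 nM terbium anti-His antibody, 200 μM PRPP and 2.5 mM ATP in assay buffer with 2% DMSO, then left 16 hours to permit possible enzymatic processing of compounds before time-resolved FRET was measured.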
(In general: Time-resolved FRET reads energy transfer from a long-lived donor to a nearby acceptor.)

In test [3] the target is NAMPT (human, recombinant, C-terminally His-tagged) (Homo sapiens, UniProt P43490). The test can be described thus: Time-Resolved Fluorescence Resonance Energy Transfer (TR-FRET) Binding Assay of NAMPT. The note with it: without substrates; 6.8 nM NAMPT, 200 nM probe, 3 hours equilibration. In short, it runs like this: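 Compounds, diluted in half-log steps, are mixed with enzyme (6.8 nM), fluorescent probe (200 nM) and Tb-anti-His antibody (1 nM) in pH 7.5 HEPES buffer containing 10 mM MgCl2 and 1 mM DTT. Plates equilibrate 3 h at room temperature; normalized FRET ratios are fitted by four-parameter logistic regression for IC50.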
Chain of NAMPT (human, recombinant, C-terminally His-tagged) (P43490 whole entry): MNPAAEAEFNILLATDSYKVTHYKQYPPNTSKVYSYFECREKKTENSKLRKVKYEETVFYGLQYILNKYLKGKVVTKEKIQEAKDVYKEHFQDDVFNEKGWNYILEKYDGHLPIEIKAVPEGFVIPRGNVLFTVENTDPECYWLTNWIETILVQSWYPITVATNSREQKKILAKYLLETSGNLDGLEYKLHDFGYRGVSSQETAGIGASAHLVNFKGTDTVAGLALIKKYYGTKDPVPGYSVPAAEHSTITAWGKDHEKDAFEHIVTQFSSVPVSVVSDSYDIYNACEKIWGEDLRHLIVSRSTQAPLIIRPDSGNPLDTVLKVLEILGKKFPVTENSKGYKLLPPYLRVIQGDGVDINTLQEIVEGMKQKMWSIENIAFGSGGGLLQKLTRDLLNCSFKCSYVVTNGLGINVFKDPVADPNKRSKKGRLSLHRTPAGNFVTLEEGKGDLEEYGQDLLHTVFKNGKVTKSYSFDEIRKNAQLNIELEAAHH

Chain of NAMPT (P43490 whole entry): as above

In general, pIC50 refers to −log10 of the IC50, conventionally taken in molar units. As to `O=C(NCc1ccn2ccnc2c1)Nc1ccc(C2=CCN(C(=O)C3CCCO3)CC2)cc1F` (stereo not drawn) [Example 307, 1-{2-fluoro-4-[1-(tetrahydrofuran-2-ylcarbonyl)-1,2,3,6-tetrahydropyridin-4-yl]phenyl}-3-(imidazo[1,2-a]pyridin-7-ylmethyl)urea], the pIC50 in test [1] is 7.87; in test [2], 9.77; in test [3], 7.29.
Consider `O=C(NCc1ccc2nccn2c1)c1ccc(C2=CCN(C(=O)CC3CCCO3)CC2)cc1` (stereo not drawn) [Example 95, N-(imidazo[1,2-a]pyridin-6-ylmethyl)-4-[1-(tetrahydrofuran-2-ylacetyl)-1,2,3,6-tetrahydropyridin-4-yl]benzamide], for which the values for the negative logarithm of the IC50 (pIC50) in test [1], in test [2] and in test [3] were 7.97, 9.00 and 6.70, respectively.
On the same counts, the results for `O=C(NCc1ccn2ccnc2c1)Nc1ccc(OC2CN(C(=O)CC3CC3)C2)cc1` [Example 427, 1-(4-{[1-(cyclopropylacetyl)azetidin-3-yl]oxy}phenyl)-3-(imidazo[1,2-a]pyridin-7-ylmethyl)urea] are 7.21, 9.57 and 6.82.
`CC1CC1C(=O)N1CCC(c2ccc(C(=O)NCc3ccn4ccnc4c3)cc2)C1` (stereo not drawn) [Example 580, N-(imidazo[1,2-a]pyridin-7-ylmethyl)-4-{1-[(2-methylcyclopropyl)carbonyl]pyrrolidin-3-yl}benzamide]: the pIC50 in test [1] was 6.67; in test [2], 9.10; in test [3], 5.83.
For `O=C(CC1CCCC1)Nc1ccc(C(=O)NCc2ccn3ccnc3c2)cc1` [Example 117, 4-[(cyclopentylacetyl)amino]-N-(imidazo[1,2-a]pyridin-7-ylmethyl)benzamide], the results for the pIC50 in test [1], in test [2] and in test [3] were 7.19, 9.36 and 6.41, respectively.
On the same counts, the results for `CC(C)OCC(=O)N1CC(Oc2ccc(NC(=O)NCc3ccn4ccnc4c3)cc2)C1` [Example 429, 1-(imidazo[1,2-a]pyridin-7-ylmethyl)-3-[4-({1-[(propan-2-yloxy)acetyl]azetidin-3-yl}oxy)phenyl]urea] are 7.73, 9.40 and 6.89.
Turning to `CN1CCC(C(=O)Nc2ccc(NC(=O)Nc3ccc4nccn4c3)cc2)CC1` [Example 48], the negative logarithm of the IC50 (pIC50) was 5.27 in test [1], 9.77 in test [2] and less than 5.00 in test [3].
Take `CC(C)OC(=O)N1CCC(c2ccc(C(=O)NCc3ccn4ccnc4c3)s2)CC1` [Example 570, propan-2-yl-4-{5-[(imidazo[1,2-a]pyridin-7-ylmethyl)carbamoyl]thiophen-2-yl}piperidine-1-carboxylate]: the pIC50 in test [1] was 8.13; in test [2] it was 9.12; in test [3], 7.15.
Take `COCC(=O)N1CCC(c2ccc(C(=O)NCc3ccn4ccnc4c3)s2)CC1` [Example 257, N-(imidazo[1,2-a]pyridin-7-ylmethyl)-5-[1-(methoxyacetyl)piperidin-4-yl]thiophene-2-carboxamide]: the values for the pIC50 in test [1], in test [2] and in test [3] were 7.82, 9.46 and 7.00, respectively.
Take `CC(C)C(=O)N1CCC(c2ccc(NC(=O)NCc3ccn4ccnc4c3)cc2)CC1` [Example 228, 1-(imidazo[1,2-a]pyridin-7-ylmethyl)-3-{4-[1-(2-methylpropanoyl)piperidin-4-yl]phenyl}urea]: the pIC50 in test [1] was 8.07; in test [2], 9.62; in test [3], 7.31.
On the same counts, the results for `O=C(Nc1ccc(C(=O)NCC2CCOCC2)cc1)Nc1ccc2nccn2c1` [Example 22] are 6.85, 9.56 and 6.40.
Turning to `COCCNC(=O)N(CC1CCOCC1)c1ncc(C(=O)NCc2ccc3nccn3c2)s1` [Example 151, N-(imidazo[1,2-a]pyridin-6-ylmethyl)-2-{[(2-methoxyethyl)carbamoyl](tetrahydro-2H-pyran-4-ylmethyl)amino}-1,3-thiazole-5-carboxamide], the pIC50 was 7.12 in test [1], 8.26 in test [2] and 5.15 in test [3].
For `CC[C@H](C)C(=O)NC1(c2ccc(C(=O)NCc3ccn4ccnc4c3)s2)CCC1` [Example 470, N-(imidazo[1,2-a]pyridin-7-ylmethyl)-5-(1-{[(2S)-2-methylbutanoyl]amino}cyclobutyl)thiophene-2-carboxamide], the pIC50 is 6.03 in test [1], 9.34 in test [2] and 5.25 in test [3].
As for `O=C(NCc1ccn2ccnc2c1)c1ccc(C2CCN(C(=O)[C@@H]3CCCO3)C2)cc1` (stereo partly drawn) [Example 374, N-(imidazo[1,2-a]pyridin-7-ylmethyl)-4-{1-[(2S)-tetrahydrofuran-2-ylcarbonyl]pyrrolidin-3-yl}benzamide], the pIC50 is 6.10 in test [1], 9.53 in test [2] and 5.78 in test [3].
On the same counts, the results for `O=C(NCc1ccc2nccn2c1)c1cnc(N(CC2CCCO2)C(=O)Cc2nnn[nH]2)s1` (stereo not drawn) [Example 132, N-(imidazo[1,2-a]pyridin-6-ylmethyl)-2-[(tetrahydrofuran-2-ylmethyl)(1H-tetrazol-5-ylacetyl)amino]-1,3-thiazole-5-carboxamide] are 6.28, 7.88 and 6.81.
As to `O=C(NCc1ccn2ccnc2c1)Nc1ccc(O[C@@H]2CCN(C(=O)c3ccccc3F)C2)cc1` [Example 689, 1-(4-{[(3R)-1-(2-fluorobenzoyl)pyrrolidin-3-yl]oxy}phenyl)-3-(imidazo[1,2-a]pyridin-7-ylmethyl)urea], the negative-log IC50 (pIC50) in test [1] was 8.14; in test [2], 8.88; in test [3] it was 7.80.
Consider `O=C(NCc1ccn2ccnc2c1)c1ccc(C2CN(C(=O)c3ccncc3)C2)cc1` [Example 658, N-(imidazo[1,2-a]pyridin-7-ylmethyl)-4-[1-(pyridin-4-ylcarbonyl)azetidin-3-yl]benzamide], for which the pIC50 in test [1] is 7.22; in test [2] it was 9.12; in test [3] it was 6.86.
Regarding `CC(C)Cn1cc(-c2ccc(C(=O)NCc3ccn4ncnc4c3)s2)cn1` [Example 497, 5-[1-(2-methylpropyl)-1H-pyrazol-4-yl]-N-([1,2,4]triazolo[1,5-a]pyridin-7-ylmethyl)thiophene-2-carboxamide], the pIC50 was 6.13 in test [1], 8.54 in test [2] and 7.62 in test [3].
As to `O=C(Nc1ccc(C2CCN(C(=O)C3CCCO3)CC2)cc1)Nc1ccc2nccn2c1` (stereo not drawn) [Example 113, 1-imidazo[1,2-a]pyridin-6-yl-3-{4-[1-(tetrahydrofuran-2-ylcarbonyl)piperidin-4-yl]phenyl}urea], the values for the pIC50 in test [1], in test [2] and in test [3] were 7.03, 9.77 and 6.45, respectively.
Consider `Cc1nn(C)cc1CC(=O)N(CC1CCCO1)c1ncc(C(=O)NCc2ccc3nccn3c2)s1` (stereo not drawn) [Example 184, 2-{[(1,3-dimethyl-1H-pyrazol-4-yl)acetyl](tetrahydrofuran-2-ylmethyl)amino}-N-(imidazo[1,2-a]pyridin-6-ylmethyl)-1,3-thiazole-5-carboxamide], for which the pIC50 is 7.19 in test [1], 8.60 in test [2] and 5.36 in test [3].
As for `O=C(NCc1ccn2ccnc2c1)c1ccc(C2CCN(C(=O)c3ccccc3F)CC2)o1` [Example 735, 5-[1-(2-fluorobenzoyl)piperidin-4-yl]-N-(imidazo[1,2-a]pyridin-7-ylmethyl)furan-2-carboxamide], the pIC50 is 6.16 in test [1], 9.06 in test [2] and 6.19 in test [3].
Consider `O=C(CC1CCOC1)Nc1ccc(C(=O)NCc2ccc3ncc(Cl)n3c2)cc1` (stereo not drawn) [Example 398, N-[(3-chloroimidazo[1,2-a]pyridin-6-yl)methyl]-4-[(tetrahydrofuran-3-ylacetyl)amino]benzamide], for which the figures for the negative-log IC50 (pIC50) in test [1], in test [2] and in test [3] were 7.13, 9.10 and 6.68, respectively.
As for `O=C(NCc1ccn2ccnc2c1)c1ccc(-c2ccccc2)s1` [Example 299, N-(imidazo[1,2-a]pyridin-7-ylmethyl)-5-phenylthiophene-2-carboxamide], the negative logarithm of the IC50 (pIC50) was 5.06 in test [1], 9.55 in test [2] and 6.76 in test [3].
The matching figures for `O=C(Nc1ccc(C2=CCN(C(=O)CN3CCOCC3)CC2)cc1)Nc1ccc2nccn2c1` [Example 30, 1-imidazo[1,2-a]pyridin-6-yl-3-{4-[1-(morpholin-4-ylacetyl)-1,2,3,6-tetrahydropyridin-4-yl]phenyl}urea]: 7.42, 9.11 and 5.93.
On to `CC(C)Cn1cc(-c2ccc(C(=O)NCc3ccn4ccnc4c3)cc2)cn1` [Example 315, N-(imidazo[1,2-a]pyridin-7-ylmethyl)-4-[1-(2-methylpropyl)-1H-pyrazol-4-yl]benzamide], for which the figures for the negative-log IC50 (pIC50) in test [1], in test [2] and in test [3] were 6.14, 9.49 and 6.64, respectively.
As to `O=C(Nc1ccc(C(=O)NCCOc2ccccc2)cc1)Nc1ccc2nccn2c1` [Example 10, 4-[(imidazo[1,2-a]pyridin-6-ylcarbamoyl)amino]-N-(2-phenoxyethyl)benzamide], the pIC50 is 6.48 in test [1], 9.34 in test [2] and 6.71 in test [3].
